Measured values from patent US20240116985A1, “STAPLED PEPTIDES AND METHODS THEREOF” (priority 2020, published 2024).
Values after ≈ are worked out from the molar mass of the structure shown. Like-named read-outs stand apart in the source and are kept apart here.

Key:
[1] = target: T1, full-length beta-Catenin (Uniprot ID P35222) (Homo sapiens, UniProt P35222); assay: Fluorescence polarization IC50 (beta-catenin / 5FAM-TCF4 10-53 competition); format: binding
T1 construct: 10 nM full-length beta-Catenin (Uniprot ID P35222)
T1 sequence (P35222 1-781): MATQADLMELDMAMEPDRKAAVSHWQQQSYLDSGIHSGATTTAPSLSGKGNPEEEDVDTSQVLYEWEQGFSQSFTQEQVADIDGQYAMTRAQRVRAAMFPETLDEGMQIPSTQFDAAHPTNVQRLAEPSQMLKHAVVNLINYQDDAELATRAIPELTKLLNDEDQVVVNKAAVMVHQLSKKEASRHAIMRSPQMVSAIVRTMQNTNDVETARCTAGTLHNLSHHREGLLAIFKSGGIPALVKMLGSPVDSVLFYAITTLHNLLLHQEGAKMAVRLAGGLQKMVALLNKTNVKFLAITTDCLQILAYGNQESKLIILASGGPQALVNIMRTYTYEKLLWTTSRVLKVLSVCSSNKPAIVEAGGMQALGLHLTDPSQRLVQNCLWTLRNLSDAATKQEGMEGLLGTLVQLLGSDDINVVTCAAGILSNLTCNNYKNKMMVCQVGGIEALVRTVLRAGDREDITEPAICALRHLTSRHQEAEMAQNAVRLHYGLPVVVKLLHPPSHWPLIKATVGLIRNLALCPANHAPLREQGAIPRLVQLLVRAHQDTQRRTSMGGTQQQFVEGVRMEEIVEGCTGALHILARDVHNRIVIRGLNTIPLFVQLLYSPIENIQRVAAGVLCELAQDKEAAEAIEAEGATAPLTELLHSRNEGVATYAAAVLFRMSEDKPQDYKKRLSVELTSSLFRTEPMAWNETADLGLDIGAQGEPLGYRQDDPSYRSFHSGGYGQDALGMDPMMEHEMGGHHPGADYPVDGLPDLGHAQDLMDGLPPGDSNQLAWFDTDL

[2] = target: T2, beta-catenin/TCF4 engagement (Homo sapiens, UniProt P35222); assay: Nano-BRET target engagement assay (B-cat-Halo & TCF4-Luc in HEK293 cells); format: cell-based; details: absolute IC50; read-out: NanoBRET Abs IC50
T2 construct: expressed in transfected cells; host or cells: HEK293
T2 sequence (P35222 1-781): T1 sequence (P35222 1-781)

Solubility in PBS = format: physicochemical
Summary of the method: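 HPLC quantitation of peptide remaining in the PBS supernatant after ultracentrifugation, referenced to a 50 μM solution in DMSO.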

CHI Log D procedure = format: physicochemical; details: for chromatographic logD: pH 7.4, CHI Log D; for CHI Log D: pH 7.4
[3] = fluorescence polarization, read-out: beta-Catenin FP IC50

Compound	IC50 [1, 3] [nM]	IC50 [2] [nM]	Solubility (Solubility in PBS) [µM]	chromatographic logD (CHI Log D procedure)	Solubility (Solubility in PBS; Solubility (uM)) [µM]	IC50 ([1]; read-out: FP EC50) [nM]	CHI Log D (CHI Log D procedure)
CC[C@H](C)[C@@H]1NC(=O)[C@H](CC(=O)O)NC(=O)[C@]2(CC=CCCCC3(CCCC=CCCCCCC[C@@](C)(C(=O)N[C@@H](Cc4ccccc4)C(=O)N[C@@H](Cc4csc5ccccc45)C(=O)N[C@@H](CCC(N)=O)C(N)=O)NC(=O)[C@H](CCC(N)=O)NC(=O)[C@H](Cc4cccs4)NC(=O)[C@H](C)NC(=O)[C@H](C)NC(=O)[C@H](CCC(=O)O)NC(=O)[C@H](CC(=O)O)NC3=O)NC1=O)CCCN2C(C)=O (stereo partly drawn) [I-485, Ac-PL3-Asp-Ile-B5-Asp-Glu-Ala-Ala-2Thi-Gln-S8-Phe-BztA-Gln-NH2]	34	11300	50 (≈ 94.5 µg/mL)	2.3	–	–	–
CC(=O)N1CCC[C@]12CC=CCCCC1(CCCC=CCCCCCC[C@@](C)(C(=O)N[C@@H](Cc3ccccc3)C(=O)N[C@@H](Cc3csc4ccccc34)C(=O)N[C@@H](Cc3c[nH]cn3)C(N)=O)NC(=O)[C@H](CCC(N)=O)NC(=O)[C@H](Cc3ccccc3)NC(=O)[C@H](C)NC(=O)[C@H](C)NC(=O)[C@H](CCC(=O)O)NC(=O)[C@H](CC(=O)O)NC1=O)NC(=O)[C@H](CC(C)C)NC(=O)[C@H](CC(=O)O)NC2=O (stereo partly drawn) [I-506, Ac-PL3-Asp-Leu-B5-Asp-Glu-Ala-Ala-Phe-Gln-S8-Phe-BztA-His-NH2]	25	8900	10 (≈ 18.9 µg/mL)	2.41	–	–	–
CC[C@H](C)[C@@H]1NC(=O)[C@H](CC(=O)O)NC(=O)[C@]2(CC=CCCCC3(CCCC=CCCCCCC[C@@](C)(C(=O)N[C@@H](Cc4ccccc4OC)C(=O)N[C@@H](Cc4csc5ccccc45)C(=O)N[C@@H](Cc4c[nH]cn4)C(N)=O)NC(=O)[C@H](CC(N)=O)NC(=O)[C@H](Cc4ccccc4)NC(=O)[C@H](C)NC(=O)[C@H](C)NC(=O)[C@H](CCC(=O)O)NC(=O)[C@H](CC(=O)O)NC3=O)NC1=O)CCCN2C(C)=O (stereo partly drawn) [I-512, Ac-PL3-Asp-Ile-B5-Asp-Glu-Ala-Ala-Phe-Asn-S8-2OMeF-BztA-His-NH2]	20	12300	–	2.44	17 (≈ 32.4 µg/mL)	–	–
CC[C@H](C)[C@@H]1NC(=O)[C@H](CC(=O)O)NC(=O)[C@]2(CC=CCCCC3(CCCC=CCCCCCC[C@@](C)(C(=O)N[C@@H](Cc4ccccc4C(N)=O)C(=O)N[C@@H](Cc4csc5ccccc45)C(=O)N[C@@H](Cc4c[nH]cn4)C(N)=O)NC(=O)[C@H](CC(N)=O)NC(=O)[C@H](Cc4ccccc4)NC(=O)[C@H](C)NC(=O)[C@H](C)NC(=O)[C@H](CCC(=O)O)NC(=O)[C@H](CC(=O)O)NC3=O)NC1=O)CCCN2C(C)=O (stereo partly drawn) [I-514, Ac-PL3-Asp-Ile-B5-Asp-Glu-Ala-Ala-Phe-Asn-S8-2CBMF-BztA-His-NH2]	30	> 20000	50 (≈ 96.1 µg/mL)	1.91	–	–	–
CC[C@H](C)[C@@H]1NC(=O)[C@H](CC(=O)O)NC(=O)[C@]2(CC=CCCCC3(CCCC=CCCCCCC[C@@](C)(C(=O)N[C@@H](Cc4ccsc4)C(=O)N[C@@H](Cc4csc5ccccc45)C(=O)N[C@@H](Cc4c[nH]cn4)C(N)=O)NC(=O)[C@H](CC(N)=O)NC(=O)[C@H](Cc4ccccc4)NC(=O)[C@H](C)NC(=O)[C@H](C)NC(=O)[C@H](CCC(=O)O)NC(=O)[C@H](CC(=O)O)NC3=O)NC1=O)CCCN2C(C)=O (stereo partly drawn) [I-517, Ac-PL3-Asp-Ile-B5-Asp-Glu-Ala-Ala-Phe-Asn-S8-3Thi-BztA-His-NH2]	15	9700	–	2.42	15 (≈ 28.3 µg/mL)	–	–
CC(=O)N1CCC[C@]12CC=CCCCC1(CCCC=CCCCCCC[C@@](C)(C(=O)N[C@@H](Cc3ccsc3)C(=O)N[C@@H](Cc3csc4ccccc34)C(=O)N[C@@H](CCC(N)=O)C(N)=O)NC(=O)[C@H](CC(N)=O)NC(=O)[C@H](Cc3ccccc3)NC(=O)[C@H](C)NC(=O)[C@H](C)NC(=O)[C@H](CCC(=O)O)NC(=O)[C@H](CC(=O)O)NC1=O)NC(=O)[C@H](C)NC(=O)[C@H](CC(=O)O)NC2=O (stereo partly drawn) [I-519, Ac-PL3-Asp-Ala-B5-Asp-Glu-Ala-Ala-Phe-Asn-S8-3Thi-BztA-Gln-NH2]	33	28800	50 (≈ 91.7 µg/mL)	–	–	33	2.004
CC[C@H](C)[C@@H]1NC(=O)[C@H](CC(=O)O)NC(=O)[C@]2(CC=CCCCC3(CCCC=CCCCCCC[C@@](C)(C(=O)N[C@@H](Cc4ccsc4)C(=O)N[C@@H](Cc4csc5ccccc45)C(=O)N[C@@H](CCC(N)=O)C(N)=O)NC(=O)[C@H](CC(N)=O)NC(=O)[C@H](Cc4ccccc4)NC(=O)[C@H](C)NC(=O)[C@H](C)NC(=O)[C@H](CCC(=O)O)NC(=O)[C@H](CC(=O)O)NC3=O)NC1=O)CCCN2C(C)=O (stereo partly drawn) [I-521, Ac-PL3-Asp-Ile-B5-Asp-Glu-Ala-Ala-Phe-Asn-S8-3Thi-BztA-Gln-NH2]	23	15400	50 (≈ 93.8 µg/mL)	–	–	23	2.351
CC(=O)N1CCC[C@]12CC=CCCCC1(CCCC=CCCCCCC[C@@](C)(C(=O)N[C@@H](Cc3ccccc3)C(=O)N[C@@H](Cc3csc4ccccc34)C(=O)N[C@@H](Cc3c[nH]cn3)C(N)=O)NC(=O)[C@H](CC(N)=O)NC(=O)[C@H](Cc3ccccc3)NC(=O)[C@H](C)NC(=O)[C@H](C)NC(=O)[C@H](CCC(=O)O)NC(=O)[C@H](CC(=O)O)NC1=O)NC(=O)[C@H](CC(C)C)NC(=O)[C@H](CC(=O)O)NC2=O (stereo partly drawn) [I-543, Ac-PL3-Asp-Leu-B5-Asp-Glu-Ala-Ala-Phe-Asn-S8-Phe-BztA-His-NH2]	32	17000	–	2.47	28 (≈ 52.6 µg/mL)	–	–
CC(=O)N1CCC[C@]12CC=CCCCC1(CCCC=CCCCCCC[C@@](C)(C(=O)N[C@@H](Cc3ccccc3)C(=O)N[C@@H](Cc3csc4ccccc34)C(=O)N[C@@H](CCC(N)=O)C(N)=O)NC(=O)[C@H](CCC(N)=O)NC(=O)[C@H](Cc3ccccc3)NC(=O)[C@H](C)NC(=O)[C@H](C)NC(=O)[C@H](CCC(=O)O)NC(=O)[C@H](CC(=O)O)NC1=O)NC(=O)[C@H](CC(C)(C)C)NC(=O)[C@H](CC(=O)O)NC2=O (stereo partly drawn) [I-544, Ac-PL3-Asp-Npg-B5-Asp-Glu-Ala-Ala-Phe-Gln-S8-Phe-BztA-Gln-NH2]	24	4600	–	2.48	48 (≈ 91.1 µg/mL)	–	–
CC(=O)N1CCC[C@]12CC=CCCCC1(CCCC=CCCCCCC[C@@](C)(C(=O)N[C@@H](Cc3ccccc3)C(=O)N[C@@H](Cc3csc4ccccc34)C(=O)N[C@@H](CCC(N)=O)C(N)=O)NC(=O)[C@H](CCC(N)=O)NC(=O)[C@H](Cc3ccccc3)NC(=O)[C@H](C)NC(=O)[C@H](C)NC(=O)[C@H](CCC(=O)O)NC(=O)[C@H](CC(=O)O)NC1=O)NC(=O)[C@H](CCC(C)C)NC(=O)[C@H](CC(=O)O)NC2=O (stereo partly drawn) [I-545, Ac-PL3-Asp-hLeu-B5-Asp-Glu-Ala-Ala-Phe-Gln-S8-Phe-BztA-Gln-NH2]	21	3500	–	2.57	46 (≈ 87.3 µg/mL)	–	–
CC(=O)N1CCC[C@]12CC=CCCCC1(CCCC=CCCCCCC[C@@](C)(C(=O)N[C@@H](Cc3ccccc3)C(=O)N[C@@H](Cc3csc4ccccc34)C(=O)N[C@@H](CCC(N)=O)C(N)=O)NC(=O)[C@H](CC(N)=O)NC(=O)[C@H](Cc3ccccc3)NC(=O)[C@H](C)NC(=O)[C@H](C)NC(=O)[C@H](CC(=O)O)NC(=O)[C@H](CC(=O)O)NC1=O)NC(=O)[C@H](CC(C)(C)C)NC(=O)[C@H](CC(=O)O)NC2=O (stereo partly drawn) [I-546, Ac-PL3-Asp-Npg-B5-Asp-Asp-Ala-Ala-Phe-Asn-S8-Phe-BztA-Gln-NH2]	16	12100	50 (≈ 93.5 µg/mL)	2.4	–	–	–
